Results on 48 molecules are retold here after patent EP0522203A1, “Protein from lactic acid bacteria” (PROBICOM RESEARCH B.V., priority 1991, dated 1993).

*1 amine or outer side, *2 acyl side, *3 side chain or, on linkers, in order; H or OH if unused. Where a SMILES comes first, the peptide text is derived from it. The star is where a group is joined. pNA = O=[N+]([O-])c1ccc(N*)cc1; Suc = O=C(CCC(=O)[*:2])[*:1]; Cbz = O=C(OCc1ccccc1)*; Bz = O=C(c1ccccc1)*

The first assay relates to endopeptidase from L. lactis subsp. cremoris Wg2. Put plainly: Substrate specificity: hydrolysis of peptides by the purified endopeptidase, analysed by thin layer chromatography. The format is biochemical. On the set-up: key to Activity: +: hydrolysis; -: no hydrolysis detectable.
Settings: not given
Regarding `C[C@H](NC(=O)[C@H](Cc1ccccc1)NC(=O)OCc1ccccc1)C(=O)O` [Z-Phe-Ala], the Activity result is listed as “-”. Consider `C[C@H](N)C(=O)N1CCC[C@H]1C(=O)Nc1ccc([N+](=O)[O-])cc1` [Ala-Pro-pNA] (H-Ala-Pro-pNA), for which the Activity entry was “-”. On to `CC(C)C[C@H](NC(=O)OCc1ccccc1)C(=O)NCC(=O)NCC(=O)Nc1ccc([N+](=O)[O-])cc1` [Z-Leu-Gly-Gly-pNA] (Cbz-Leu-Gly-Gly-pNA), for which the Activity entry was “-”. In the case of `CSCC[C@H](N)C(=O)NCC(=O)NCC(=O)O` [Met-Gly-Gly] (H-Met-Gly-Gly-OH), the Activity result was “-”. Consider `CC(C)C[C@H](NC(=O)[C@@H](N)CC(C)C)C(=O)O` [Leu-Leu], for which the Activity result is on record as “-”. Take `CC(C)C[C@H](NC(=O)[C@@H]1CCCN1C(=O)[C@H](C)NC(=O)[C@H](C)NC(=O)CCC(=O)O)C(=O)Nc1ccc([N+](=O)[O-])cc1` [Nsucc-Ala-Ala-Pro-Leu-pNA] (Suc-AAPL-pNA): the Activity result was “-”. Consider Neurotensin, for which the Activity result is given as “+”. On the same count and under the same terms, to `C[C@H](NC(=O)[C@@H]1CCCN1C(=O)CN)C(=O)N1CCC[C@H]1C(=O)O` [Gly-Pro-Ala-Pro] (H-GPAP-OH) belongs “-”; to `CC(C)C[C@H](NC(=O)[C@H](CC(C)C)NC(=O)[C@@H](N)CC(C)C)C(=O)O` [Leu-Leu-Leu] (H-Leu-Leu-Leu-OH), “-”. As to `CSCC[C@H](NC(=O)[C@@H](N)Cc1ccccc1)C(=O)O` [Phe-Met] (H-Phe-Met-OH), the Activity result is on record as “-”. Same read-out and setting: to `C[C@H](N)C(=O)N[C@@H](C)C(=O)N[C@@H](C)C(=O)N[C@@H](C)C(=O)N[C@@H](C)C(=O)O` [Ala5] belongs “-”; to `C[C@H](NC(=O)[C@@H]1CCCN1C(=O)OCc1ccccc1)C(=O)O` [Z-Pro-Ala] (Cbz-Pro-Ala-OH), “-”. The same measure, in the same setting: to `CSCC[C@H](NC(=O)[C@H](Cc1ccccc1)NC(=O)CNC(=O)CNC(=O)[C@@H](N)Cc1ccc(O)cc1)C(=O)O` [Metenkaphalin, Tyrosyl-glycyl-glycyl-phenylalanyl-methionine] belongs “+”. The same measure, in the same setting: to `NCC(=O)N1CCC[C@H]1C(=O)Nc1ccc([N+](=O)[O-])cc1` [Gly-Pro-pNA] (H-Gly-Pro-pNA) belongs “-”; to β-Casomorphin, “-”; to `C[C@H](N)C(=O)N[C@@H](C)C(=O)N[C@@H](C)C(=O)N[C@@H](C)C(=O)N[C@@H](C)C(=O)N[C@@H](C)C(=O)O` [Ala6], “-”.

Regarding `O=C(NCC(=O)N1CCC[C@H]1C(=O)O)c1ccccc1` [Bz-Gly-Pro] (Bz-Gly-Pro-OH), the Activity result is given as “-”. In the case of `CC(C)[C@H](NC(=O)[C@@H](N)Cc1ccccc1)C(=O)O` [Phe-Val] (H-Phe-Val-OH), the Activity entry is “-”. Still for that read-out and setting: to Glucagon belongs “+”; to `CC(C)[C@H](NC(=O)CN)C(=O)N[C@@H](Cc1ccccc1)C(=O)O` [Gly-Val-Phe] (H-Gly-Val-Phe-OH), “-”; to `C[C@H](NC(=O)CCC(=O)O)C(=O)N[C@@H](C)C(=O)N[C@@H](C)C(=O)Nc1ccc([N+](=O)[O-])cc1` [Nsucc-Ala-Ala-Ala-pNA], “-”. For the molecule `NCCCC[C@H](NC(=O)CNC(=O)c1ccccc1)C(=O)O` [Bz-Gly-Lys] (Bz-Gly-Lys-OH), the Activity entry is on record as “-”.

As for `N[C@@H](Cc1ccc(O)cc1)C(=O)NCC(=O)NCC(=O)O` [Tyr-Gly-Gly, Tyrosyl-glycyl-glycine] (H-Tyr-Gly-Gly-OH), the Activity result is given as “-”. As for oxydized insulin β-chain, the Activity result was “+” and the “hydrolysis by the purified endopeptidase” value is listed as “hydrolyzed”. Consider `NCC(=O)NCC(=O)O` [Gly-Gly] (H-Gly-Gly-OH), for which the Activity entry is on record as “-”.

Staying with this assay, now noted: chromogenic substrates: TLC, hydrolysis also measured at A410.
Turning to `NCCCC[C@H](N)C(=O)Nc1ccc([N+](=O)[O-])cc1` [Lys-pNA], the Activity result is on record as “-”. On the same count and under the same terms, to `O=C(O)CCC(=O)N[C@@H](Cc1ccccc1)C(=O)Nc1ccc([N+](=O)[O-])cc1` [Nsucc-Phe-pNA] belongs “-”.

Still in this assay, the particulars now being: hydrolysis of the substrate by purified endopeptidase, analysed by TLC.
For the molecule “Bradykinin (RPPGFSPFR; Bradykinin; UniProt P01042 381-389, looked up)”, the Activity result was “+”.

Take `CC(C)C[C@H](N)C(=O)NCC(=O)NCC(=O)O` [Leu-Gly-Gly] (H-Leu-Gly-Gly-OH): the Activity entry was “-”. With “β-Casein(184-202) (DMPIQAFLLYQEPVLGPVR; UniProt P02666 199-217, looked up, fragment)”, the Activity result is listed as “+”. On the same count and under the same terms, to “β-Casein( 33- 48) (FQSEEQQQTEDELQDK; UniProt P02666 48-63, looked up, fragment)” belongs “-”; to “β-Casein(203-209) (GPFPIIV; UniProt P02666 218-224, looked up, fragment)”, “+”; to `CSCC[C@H](NC(=O)[C@H](CC(C)C)NC(=O)CNC(=O)[C@H](Cc1ccccc1)NC(=O)[C@H](Cc1ccccc1)NC(=O)[C@H](CCC(N)=O)NC(=O)[C@H](CCC(N)=O)NC(=O)[C@@H]1CCCN1C(=O)[C@H](CCCCN)NC(=O)[C@@H]1CCCN1C(=O)[C@@H](N)CCCNC(=N)N)C(N)=O` [Substance P], “+”. For the molecule `NCC(=O)N1CCC[C@H]1C(=O)NCC(=O)NCC(=O)O` [Gly-Pro-Gly-Gly] (H-GPGG-OH), the Activity entry is reported as “-”.

For the next assay, the system named is LEP I.
Experiment: not given
Particulars: cited from earlier work.
As to Glucagon, the “hydrolysis by LEP I” value was “cannot hydrolyse”. For the molecule oxydized insulin β-chain, the “hydrolysis by LEP I” value is on record as “cannot hydrolyse”.

A further assay relates to endopeptidase. As to the kind of experiment: Effect of potential inhibitors (chemical agents) on the endopeptidase activity (metenkaphalin hydrolysis, TLC). It counts as biochemical, L. lactis subsp. cremoris Wg2. On the set-up: key to Inhibition: +: Inhibition; -: No inhibition detectable.
Settings: not given
As for `O=S(=O)(O)c1ccc2c(N=Nc3ccccc3[As](=O)(O)O)c(O)c(S(=O)(=O)O)cc2c1` [Thorin], the Inhibition result is “-”. Still for that read-out and setting: to Hydroxylamine belongs “-”. On to `O=S(=O)(O)c1cc[c]([Hg][Cl])cc1` [pCMBS, p-chloromercuribenzenesulfonate], for which the Inhibition entry is recorded as “-” and the “endopeptidase activity inhibited” value is “did not have an effect on the activity”.

As to `CC1=CC(=O)c2c(O)cccc2C1=O` [Plumbagin], the Inhibition result is listed as “-” and the “restoration of the enzyme activity inhibited by β-mercaptoethanol” value was “could not restore the enzyme activity”.

`O=S(=O)(F)Cc1ccccc1` [PMSF, phenylmethylsulfonylfluoride]: the Inhibition result is listed as “+” and the “endopeptidase activity inhibited” value was “inhibited”.

With `CCN1C(=O)C=CC1=O` [N-Ethylmaleimide], the Inhibition entry is on record as “-”. As to `COC(CNC(=O)c1ccccc1OCC(=O)O)[CH2][Hg][OH]` (stereo not drawn) [Mersalyl, O-(3-hydroxymercuri-2-methoxypropyl)-carbamylphenoxyacetate], the Inhibition result was “-” and the “endopeptidase activity inhibited” value is on record as “did not have an effect on the activity”.

For the molecule `O=C(O)c1cc[c]([Hg][Cl])cc1` [pCMB, p-chloromercuribenzoate], the Inhibition entry is given as “-” and the “endopeptidase activity inhibited” value is “did not have an effect on the activity”.

The assay is the same for the next values; noted with them: 1 mM chemical agent, purified enzyme 4 µg protein preincubated 10 min at 20°C; metenkaphalin 15 min at 30°C; TLC.
`c1cnc2c(c1)ccc1cccnc12` [1,10-phenanthroline]: the Inhibition entry was “+”.

For `OCCS` [β-Mercaptoethanol], the Inhibition result is “+”. For the molecule `O[C@H](CS)[C@H](O)CS` (racemic) [DTT, dithiothreitol], the Inhibition result is “-”.

Turning to `CCOC(=O)OC(=O)OCC` [DEPC], the Inhibition result was “-”. On the same count and under the same terms, to `N[C@@H](CSSC[C@H](N)C(=O)O)C(=O)O` [Cystine] belongs “-”.

Still in this assay, the particulars now being: chemical agent 1.0 mM.
Regarding `c1cnc2c(c1)ccc1cccnc12` [1,10-phenanthroline], the “endopeptidase activity inhibited” value was “inhibited”. Regarding `O[C@H](CS)[C@H](O)CS` (racemic) [DTT, dithiothreitol], the “endopeptidase activity inhibited” value was “not”.

The same assay, now with this note: oxidizing reagents up to 5 mM.
Take oxidized gluta thione: the “restoration of the enzyme activity inhibited by β-mercaptoethanol” value is “could not restore the enzyme activity”.

The assay is the same for the next values; noted with them: β-mercaptoethanol.
With `OCCS` [β-Mercaptoethanol], the “reversibility of the inhibition of the enzyme” value was “irreversible”.

The assay is the same for the next values; noted with them: β-mercaptoethanol 1%.
Turning to `OCCS` [β-Mercaptoethanol], the “endopeptidase activity inhibited” value is reported as “inhibited”.
